Data published in patent US11771725B2, “Lactobacillus having various functions, and use thereof” (University-Industry Cooperation Group of Kyung Hee …, priority 2015, dated 2023).

Assays:
[1] = tested on: itching behavior induced by compound 48/80; assay: Inhibition of itching induced by compound 48/80; assay type: in vivo; conditions: BALB/c mice, 1×10^9 CFU orally once a day for 3 days (control drugs 0.2 mg/mouse)
Description: At 1 hour after the last administration of the drug, the mice were allowed to stand in an observation cage (24 cm×22 cm×24 cm) for 10 minutes so as to be acclimated to the environment, and then the back portion of the head was shaved. […] Sigma, USA) by a 29-gauge needle. […] Scratching the injection area with the back foot was regarded as the itching behavior, and scratching other portions was not regarded.

[2] = tested on: vascular permeability induced by compound 48/80; assay: Inhibition of vascular permeability induced by compound 48/80 (Evans blue); assay type: in vivo; conditions: BALB/c mice, 1×10^9 CFU orally once a day for 3 days (control drugs 0.2 mg/mouse)
Description: It is known that itching-induced areas have increased vascular permeability. […] According to the same method as the above-described experiment for measurement of itching inhibitory activity, the drug was administered to the same mice. Next, physiological saline was injected subcutaneously into the back portion of the head of the mice of the normal group, and an itching inducer (50 μg of compound 48/80; Sigma, USA) was injected subcutaneously into the back portion of the head of the mice of the other test group. Next, 0.2 ml of 1% Evans blue solution (Sigma, USA) was injected into the tail vein, and after 1 hour, the mice were euthanized. The skin of the subcutaneously injected area was dissected, and incubated in 1 ml of 1N KOH at 37° C. overnight. On the next day, the incubated skin tissue was mixed with 4 ml of 0.6N phosphoric acid-acetone (5:13) mixture and centrifuged at 3000 rpm for 15 minutes, and the supernatant was collected and measured for absorbance at 620 nm. Inhibition (%) of vascular permeability was calculated using the following equation: Inhibition(%)={1−[absorbance of area treated with drug and itching inducer−absorbance of area not treated with itching inducer]/[absorbance of area treated with itching inducer−absorbance of area not treated with itching inducer]}×100

[3] = tested on: RBL-2H3 cell line (rat mast cell line); assay: Inhibition of degranulation in IgE-sensitized RBL-2H3 cells; assay type: cell-based; conditions: RBL-2H3, lactic acid bacteria 1×10^4 CFU/ml
Description: The RBL-2H3 cell line (rat mast cell line, the Korean Cell Line Bank, Cat. No. 22256) was cultured with DMEM (Dulbeccos' modified Eagle's medium, Sigma, 22256) containing 10% FBS (fetal bovine serum) and L-glutamine in a humidified 5% CO2 incubator at 37° C. The cells contained in the culture medium were floated using trypsin-EDTA solution, and the floated cells were isolated, collected and used in the experiment. The collected RBL-2H3 cells were dispensed into a 24-well plate at a density of 5×10^5 cells/well and sensitized by incubation with 0.5 μg/ml of mouse monoclonal IgE for 12 hours. The sensitized cells were washed with 0.5 ml of siraganian buffer (119 mM NaCl, 5 mM KCl, 0.4 mM MgCl2, 25 mM PIPES, 40 mM NaOH, pH 7.2), and then incubated with 0.16 ml of siraganian buffer (supplemented with 5.6 mM glucose, 1 mM CaCl2), 0.1% BSA) at 37° C. for 10 minutes. Next, lactic acid bacteria as a test drug were added to the cell culture to a concentration of 1×10^4 CFU/ml, or 0.04 ml of DSCG (disodium cromoglycate) as a control drug was added to the cell culture, and after 20 minutes, the cells were activated with 0.02 ml of antigen (1 μg/ml DNP-BSA) at 37° C. for 10 minutes. […] Next, the reaction was stopped by addition of 0.2 ml of 0.1M Na2CO3/NaHCO3, and the absorbance at 405 nm was measured by an ELISA analyzer.

## CN1CCCC(n2nc(Cc3ccc(Cl)cc3)c3ccccc3c2=O)CC1 (stereo not drawn) [Azelastine]
[1]
  Inhibition (%) Itching: 65%
[2]
  Inhibition (%) vascular permeability: 68%

## O=C([O-])c1cc(=O)c2c(OCC(O)COc3cccc4oc(C(=O)[O-])cc(=O)c34)cccc2o1.[Na+].[Na+] [DSCG, disodium cromoglycate]
[1]
  Inhibition (%) Itching: 25%
[2]
  Inhibition (%) vascular permeability: 37%
[3]; first experiment
  Inhibition (%) Degranulation: 62%
[3]; second experiment
  Degranulation inhibition (%): 62%
